Measurements: patent publication US7807707B2, “Hair and/or scalp care compositions incorporating amino-oxo-indole-ylidene compounds” (priority 2005, dated 2010)

Tests used:
[1] = target: T1, Cannabinoid Receptor 2 (CB2R) (Homo sapiens, UniProt P34972); assay: CB2R radioligand assay on membranes from HEK293 cells over-expressing human recombinant CB2; type: binding
T1 construct: purchased Perkin-Elmer; host or cells: HEK293
Procedure: (§1) An amino-oxo-indole-ylidene compound of formula (I) was evaluated for its ability to activate Cannabinoid Receptor 1 (CB1R) and Cannabinoid Receptor 2 (CB2R). Its C log P value were also measured.
CB2R experiments were performed using membranes from HEK293 cells over-expressing human recombinant CB2, as described by the manufacturer (Perkin-Elmer), and using [3H]CP-55,495 as the radioligand.
(§2) Data of the active compound is expressed in Ki (mM) and are means±SEM of n=3 determinations.
(§3) The value stated is an EC50 value. This is defined as the molar concentration of an agonist, which produces 50% of the maximum possible response for that agonist. The values documented are in micromolar units.

[2] = target: T2, Cannabinoid Receptor 1 (CB1R) (Homo sapiens, UniProt P21554); assay: CB1R radioligand assay on membranes from HEK293 cells over-expressing human recombinant CB1; type: binding; conditions: human recombinant CB1, [3H]CP-55,490 radioligand, n=3
T2 construct: purchased Perkin-Elmer; host or cells: HEK293
T2 sequence (P21554 whole entry): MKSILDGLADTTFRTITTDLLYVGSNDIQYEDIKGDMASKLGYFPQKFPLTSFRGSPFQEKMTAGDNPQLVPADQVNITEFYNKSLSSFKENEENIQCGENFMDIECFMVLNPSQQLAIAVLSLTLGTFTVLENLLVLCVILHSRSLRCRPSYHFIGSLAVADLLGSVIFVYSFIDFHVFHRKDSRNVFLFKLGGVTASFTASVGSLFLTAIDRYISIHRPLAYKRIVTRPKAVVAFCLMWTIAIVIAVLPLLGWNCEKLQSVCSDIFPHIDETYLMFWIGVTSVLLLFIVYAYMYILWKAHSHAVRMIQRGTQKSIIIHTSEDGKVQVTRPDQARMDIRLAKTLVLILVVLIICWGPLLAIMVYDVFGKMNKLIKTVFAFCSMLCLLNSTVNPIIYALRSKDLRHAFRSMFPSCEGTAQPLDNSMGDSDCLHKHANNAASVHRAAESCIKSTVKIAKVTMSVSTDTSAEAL
Procedure: as §1
CB1R experiments were performed using membranes from HEK293 cells over-expressing human recombinant CB1, as described by the manufacturer (Perkin-Elmer) and using [3H]CP-55,490 as the radioligand.
as §2, §3

T1 sequence (P34972 whole entry): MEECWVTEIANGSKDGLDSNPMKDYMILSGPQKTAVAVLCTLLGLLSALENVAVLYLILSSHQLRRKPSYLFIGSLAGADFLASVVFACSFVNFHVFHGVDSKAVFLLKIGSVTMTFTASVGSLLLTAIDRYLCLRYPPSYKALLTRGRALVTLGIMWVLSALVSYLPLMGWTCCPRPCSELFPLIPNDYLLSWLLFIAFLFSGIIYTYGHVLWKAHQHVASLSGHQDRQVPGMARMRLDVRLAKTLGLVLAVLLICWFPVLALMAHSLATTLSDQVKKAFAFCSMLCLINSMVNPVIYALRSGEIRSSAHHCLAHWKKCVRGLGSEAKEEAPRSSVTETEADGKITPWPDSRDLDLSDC

O=C(CNc1cccc2ccccc12)N/N=C1\C(=O)N(CCc2ccccc2)c2ccccc21 [Example 1, (naphthalen-1-ylamino)-acetic acid (2-oxo-1-phenethyl-1,2-dihydro-indol-3-ylidene)-hydrazide]
EC50 [1]: 21.1 µM | EC50 [2]: > 25 µM
